Data taken from patent US8778896B2, “Levoisovalerylspiramycin I, II or III, preparations, preparation methods and uses thereof” (Shenyang Tonglian Group Co., Ltd., priority 2010, dated 2014).

Assays:
[1] = system: streptococcus pneumoniae18; assay: Curative effect on mouse with abdominal infection (ED50); type: in vivo, streptococcus pneumoniae; settings: streptococcus pneumoniae18, challenging dose 9.6 × 10^4 CFU/0.5 ml, deaths in 7 days, Bliss
Procedure: (§1) Test method: preparation of infection bacterial liquid: taking out the test bacterial liquid which is kept in a refrigerator at −80[…] to room temperature for about 1 h, then inoculating streptococcus pneumonia, pyogenic streptococcus and enterococcus absorbing 0.1 ml bacterial liquid respectively to 2 ml MH broth (add 10% inactivated horse serum), and inoculating 0.1 ml bacterial liquid of staphylococcus aureus to 2 ml MH broth according to the same method above; putting it in an incubator at 37[…] to be cultivated for 18 h, to obtain original bacterial liquid; diluting the original bacterial liquid with 5% gastric mucin to make animals infected with 100% lethal bacteria, to obtain infection bacterial liquid.
(§2) The clinical route of administration of carrimycin is proposed to be oral administration, thus intragastric administration is adopted in carrimychin test. Levoisovalerylspiramycin I (obtained in Embodiment 1) and of crystalline compound of levoisovalerylspiramycin I (prepared in Embodiment 27) are fed to animals via […].
(§3) After the mice are infected, respectively feed each mouse 0.2 ml via intragastric administration at 0.5 to 6 h, and they have no adverse reaction. Observe the number of deaths in 7 days, and calculate the 50% effective dose (ED50) of each drug for the infected mouse and compare the protective effect of drugs by Bliss program.

[2] = system: streptococcus pneumoniae3; assay: as above; type: in vivo, streptococcus pneumoniae; settings: streptococcus pneumoniae3, challenging dose 6.4 × 10^4 CFU/0.5 ml, deaths in 7 days, Bliss
Procedure: as §1, §2, §3

[3] = system: streptococcus pneumoniae57; assay: as above; type: in vivo, streptococcus pneumoniae; settings: streptococcus pneumoniae57, challenging dose 8.8 × 10^4 CFU/0.5 ml, deaths in 7 days, Bliss
Procedure: as §1, §2, §3

[4] = system: pyogenic streptococcus 102; assay: as above; type: in vivo; settings: pyogenic streptococcus 102, challenging dose 7.8 × 10^4 CFU/0.5 ml, deaths in 7 days, Bliss
Procedure: as §1, §2, §3

[5] = system: pyogenic streptococcus 119; assay: as above; type: in vivo; settings: pyogenic streptococcus 119, challenging dose 4.9 × 10^4 CFU/0.5 ml, deaths in 7 days, Bliss
Procedure: as §1, §2, §3

[6] = system: pyogenic streptococcus 772; assay: as above; type: in vivo; settings: pyogenic streptococcus 772, challenging dose 6.9 × 10^3 CFU/0.5 ml, deaths in 7 days, Bliss
Procedure: as §1, §2, §3

[7] = system: enterococcus32; assay: as above; type: in vivo, enterococcus; settings: enterococcus32, challenging dose 5.4 × 10^4 CFU/0.5 ml, deaths in 7 days, Bliss
Procedure: as §1, §2, §3

[8] = system: staphylococcus aureus12; assay: as above; type: in vivo, staphylococcus aureus; settings: staphylococcus aureus12, challenging dose 4.8 × 10^4 CFU/0.5 ml, deaths in 7 days, Bliss
Procedure: as §1, §2, §3

[9] = system: staphylococcus aureus16; assay: as above; type: in vivo, staphylococcus aureus; settings: staphylococcus aureus16, challenging dose 5.2 × 10^3 CFU/0.5 ml, deaths in 7 days, Bliss
Procedure: as §1, §2, §3

[10] = system: staphylococcus aureus21; assay: as above; type: in vivo, staphylococcus aureus; settings: staphylococcus aureus21, challenging dose 4.2 × 10^4 CFU/0.5 ml, deaths in 7 days, Bliss
Procedure: as §1, §2, §3

[11] = system: staphylococcus aureus76; assay: as above; type: in vivo, staphylococcus aureus; settings: staphylococcus aureus76, challenging dose 5.8 × 10^4 CFU/0.5 ml, deaths in 7 days, Bliss
Procedure: as §1, §2, §3

[12] = system: 12 strains of bacteria; assay: Protective effect on mouse infected with 12 strains of bacteria; type: in vivo; settings: in words
Procedure: as §1, §2, §3

[13] = system: streptococcus pneumoniae3; assay: MIC against the infecting test organism; type: cell-based, streptococcus pneumoniae
[14] = system: streptococcus pneumoniae18; assay: MIC against the infecting test organism; type: cell-based, streptococcus pneumoniae
[15] = system: streptococcus pneumoniae57; assay: MIC against the infecting test organism; type: cell-based, streptococcus pneumoniae
[16] = system: pyogenic streptococcus 772; assay: MIC against the infecting test organism; type: cell-based
[17] = system: pyogenic streptococcus 102; assay: MIC against the infecting test organism; type: cell-based
[18] = system: pyogenic streptococcus 119; assay: MIC against the infecting test organism; type: cell-based
[19] = system: enterococcus32; assay: MIC against the infecting test organism; type: cell-based, enterococcus
[20] = system: staphylococcus aureus16; assay: MIC against the infecting test organism; type: cell-based, staphylococcus aureus
[21] = system: staphylococcus aureus76; assay: MIC against the infecting test organism; type: cell-based, staphylococcus aureus
[22] = system: staphylococcus aureus12; assay: MIC against the infecting test organism; type: cell-based, staphylococcus aureus
[23] = system: staphylococcus aureus21; assay: MIC against the infecting test organism; type: cell-based, staphylococcus aureus
[24] = system: streptococcus pneumoniae (112); assay: Clinical isolates, agar double dilution method; type: cell-based
[25] = system: pyogenic streptococcus (93); assay: Clinical isolates, agar double dilution method; type: cell-based
[26] = system: enterococcus (106); assay: Clinical isolates, agar double dilution method; type: cell-based
[27] = system: staphylococcus aureus (155); assay: Clinical isolates, agar double dilution method; type: cell-based
[28] = system: S. epidermidis (115); assay: Clinical isolates, agar double dilution method; type: cell-based
[29] = system: hemophilus influenzae (37); assay: Clinical isolates, agar double dilution method; type: cell-based
[30] = system: gonococcus (10); assay: Clinical isolates, agar double dilution method; type: cell-based
[31] = system: Chlamydia Trachomatis B/TW-5/OT; assay: Chlamydia in vitro MIC, McCoy cells, immunofluorescence; type: cell-based; settings: 48 hours
[32] = system: Chlamydia Trachomatis D/UW-3/Cx; assay: as above; type: cell-based; settings: 48 hours
[33] = system: Chlamydia Pneumoniae CWL-029; assay: Chlamydia in vitro MIC, HEp-2 cells, immunofluorescence; type: cell-based; settings: Chlamydia Pneumoniae CWL-029, HEp-2 cells, 72 hours
[34] = system: Mycoplasma Urealyticum and Mycoplasma Pneumoniae strains; assay: Mycoplasma in vitro MIC (U-PPLO broth); type: cell-based; settings: determined 4 times, final MIC (24 h)
Procedure: 1. Test methods: adding U-PPLO 0.8 ml to each pore of aseptic 12-pore cell culture plate (adding 0.9 ml to inoculum control pore and 1.0 ml to medium control pore).
2. Add 10^4CCU/ml Uu inoculum 0.1 ml to each experimental pore. The final dose in the pore is 10^3CCU/ml (the medium control pore will not be added with inoculum).
3. Divide into 3 groups (100 μg/ml, 10 μg/ml and 1 μg/ml antibiotic stock solution), Use aseptic Tip to add antibiotic for test to each pore: 100 μl, 50 μl, 25 μl, 12.5 μl according to the double degradation concentration gradient. (The inoculum and medium control pores will not be added with the antibiotic, and meanwhile the antibiotic control pore is arranged.)
4. Blend all pores evenly. Seal the culture plate by tapes and place it in a 37[…] box for culture.
5. On 17-24 hours after the test, observe and record the Uu growth situation. When Uu inoculum control pore presents a positive growth, the minimal antibiotic concentration, which can suppress the growth of Uu, is the MIC of sample.

[35] = in vivo; cited from earlier work

COC1C(O)CC(=O)OC(C)C/C=C/C=C/C(OC2CCC(N(C)C)C(C)O2)C(C)CC(CC=O)C1OC1OC(C)C(OC2CC(C)(O)C(OC(=O)CC(C)C)C(C)O2)C(N(C)C)C1O (stereo not drawn) [crystal of isovalerylspiramycin I, levoisovalerylspiramycin I]
ED50 [1]: 8.65 mg/kg
ED50 [2]: 8.39 mg/kg
ED50 [3]: 12.82 mg/kg
ED50 [4]: 60.99 mg/kg
ED50 [5]: 54.58 mg/kg
ED50 [6]: 23.37 mg/kg
ED50 [7]: 62.11 mg/kg
ED50 [8]: 107.46 mg/kg
ED50 [9]: 21.33 mg/kg
ED50 [10]: 38.00 mg/kg
ED50 [11]: 22.26 mg/kg
protective effect (curative effect) on infected mouse ([12]; listed as crystalline compound of isovalerylspiramycin I): better protective effect

COC1C(OC(C)=O)CC(=O)OC(C)C/C=C/C=C/C(OC2CCC(N(C)C)C(C)O2)C(C)CC(CC=O)C1OC1OC(C)C(OC2CC(C)(O)C(OC(=O)CC(C)C)C(C)O2)C(N(C)C)C1O (stereo not drawn) [crystal of isovalerylspiramycin II, levoisovalerylspiramycin II]
ED50 [1]: 8.09 mg/kg
ED50 [2]: 7.69 mg/kg
ED50 [3]: 12.04 mg/kg
ED50 [4]: 58.00 mg/kg
ED50 [5]: 49.94 mg/kg
ED50 [6]: 21.90 mg/kg
ED50 [7]: 56.16 mg/kg
ED50 [8]: 104.67 mg/kg
ED50 [9]: 16.18 mg/kg
ED50 ([10]; listed as crystal of isovalcrylspiramycin II): 36.09 mg/kg
ED50 [11]: 18.71 mg/kg
protective effect (curative effect) on infected mouse [12]: good protective effect

CCC(=O)OC1CC(=O)OC(C)C/C=C/C=C/C(OC2CCC(N(C)C)C(C)O2)C(C)CC(CC=O)C(OC2OC(C)C(OC3CC(C)(O)C(OC(=O)CC(C)C)C(C)O3)C(N(C)C)C2O)C1OC (stereo not drawn) [crystal of isovalerylspiramycin III, levoisovalerylspiramycin III]
ED50 [1]: 8.68 mg/kg
ED50 [2]: 6.45 mg/kg
ED50 [3]: 11.08 mg/kg
ED50 [4]: 52.91 mg/kg
ED50 ([5]; listed as crystal of isovaletylspiramycin III): 49.94 mg/kg
ED50 [6]: 22.81 mg/kg
ED50 [7]: 65.89 mg/kg
ED50 [8]: 105.24 mg/kg
ED50 [9]: 19.29 mg/kg
ED50 [10]: 36.09 mg/kg
ED50 [11]: 18.71 mg/kg
protective effect (curative effect) on infected mouse [12]: good protective effect

acetyl spiramycin [reference compound]
ED50 [1]: 37.93 mg/kg
ED50 [2]: 66.96 mg/kg
ED50 [3]: 398.01 mg/kg
ED50 [4]: 227.07 mg/kg
ED50 [5]: 117.53 mg/kg
ED50 [6]: 98.11 mg/kg
ED50 [7]: 130.34 mg/kg
ED50 [8]: >500 mg/kg
ED50 [9]: 43.58 mg/kg
ED50 [10]: >500 mg/kg
ED50 [11]: 66.63 mg/kg
MIC [13]: 0.5 µg/mL
MIC [14]: 0.06 µg/mL
MIC [15]: 1 µg/mL
MIC [16]: 0.25 µg/mL
MIC [17]: 0.5 µg/mL
MIC [18]: 0.5 µg/mL
MIC [19]: 1 µg/mL
MIC [20]: 1 µg/mL
MIC [21]: 1 µg/mL
MIC [22]: 2048 µg/mL
MIC [23]: 2048 µg/mL
MIC50 [24]: 0.12 µg/mL
MIC90 [24]: >64 µg/mL
MIC50 [25]: 0.25 µg/mL
MIC90 [25]: >64 µg/mL
MIC50 [26]: 4 µg/mL
MIC90 [26]: >64 µg/mL
MIC50 [27]: 64 µg/mL
MIC90 [27]: >64 µg/mL
MIC50 [28]: 64 µg/mL
MIC90 [28]: >64 µg/mL
MIC50 [29]: 0.12 µg/mL
MIC90 [29]: 4 µg/mL
MIC50 [30]: 4 µg/mL
MIC90 [30]: 8 µg/mL
MIC range [30]: 0.12 to 64 µg/mL
MIC [31]: 4 µg/mL
MIC [32]: 2 µg/mL
MIC [33]: 0.5 µg/mL
MIC [34]: 0.5 µg/mL

spiramycin
absolute bioavailability by oral administration [35]: 30˜40%
